Assays:
[1] = tested on: sepsis-induced myelin injury; assay: CatWalk gait analysis of mice after perinatal sepsis-induced myelin injury; type: in vivo; details: sepsis-injured mice
Excerpt: The detection of differences in locomotor function is an important tool for the assessment of the severity of many conditions that affect the central nervous system (CNS), peripheral nervous system (PNS) and skeletal structures or muscles. A gait analysis system, such as the CatWalk™ XT, provides automatic and sensitive detection of a full range of parameters related to footprints and the dynamics of gait in animal testing.
The impact of oxysterol therapy on motor function in injured mice was also determined. Mice were subjected to sepsis-induced myelin injury on postnatal day 5. Twenty-four hours after injury, septic mice were divided into a vehicle control group and an oxysterol treated group. Treatment with 20α-hydroxycholesterol (100 mg/kg/day) was carried out daily for five days. At two months of age (adult), mice were evaluated on a CatWalk Gait Analysis System (Noldus Inc.). The gait analysis system identified multiple disturbances in the gait of untreated mature mice that survived perinatal sepsis. However, these gait disturbances were not present in mice treated with 20α-hydroxycholesterol.
Regularity Index: Regularity Index is a measure of interpaw coordination, and disturbances in regularity may be a result of cerebral injury. The Regularity Index was determined for uninjured control mice (FIG. 4A, FIG. 4D), sepsis mice (FIG. 4B, FIG. 4D), and septic mice treated with the oxysterol 20HC (FIG. 4C, FIG. 4D).
Stand and step cycle: Stand and step cycle are measures of the length of time the animal's paws are in contact with the platform as they walk. Increased stand and step cycle times are measures of gait instability.
Swing and swing speed: Swing and swing speed are measures of the animals “rocking” as they walk. While the swing was increased in perinatal sepsis survivors (FIG. 5C), the swing speed was decreased in sepsis survivors (FIG. 5D) consistant with an unsteady gait.

smoothened (SMO) = smoothened (SMO) (Homo sapiens, UniProt Q99835); details: fibroblast cell culture systems; recent studies; cited from earlier work
[2] = tested on: olig2APC+ oligodendrocytes in the periventricular white matter of the corpus callosum; assay: Perinatal mouse model of sepsis-associated myelin injury, stereological oligodendrocyte counting; type: in vivo, mice; details: sepsis injury on postnatal day 5; 100 mg/kg/day subcutaneous for 5 days from 24 hours after injury; stereology on postnatal day 25; p=0.001
Protocol: Quantification of oligodendrocyte cell numbers in the brain is critical to determining the impact of oxysterol therapy. Stereology is a useful research tool used by neuroscientists to provide accurate and unbiased estimates of cell numbers within specified brain regions. The number of oligodendrocyte numbers is determined using Stereo Investoigator™ software (MBF Bioscience) and a Zeiss Axiolmager M2 motorized fluorescent microscope with Apotome structured illumination. Perfusion fixed cryoprotected brains are frozen sectioned at […] and collected free-floating in phosphate buffered saline. […] Olig2+APC+ nucleated cells are then counted throughout the corpus callosum using a 63× oil objective lens.
Perinatal bowel perforation is a common complication of premature birth and is strongly linked to myelin injury and cerebral palsy. Using a perinatal mouse model of bowel perforation to induce sepsis-associated diffuse myelin injury on postnatal day 5, sepsis mice were determined to have a 60% reduction of mature oligodendrocytes at postnatal day 25 (FIG. 3).
To determine the efficacy of oxysterol therapy, the perinatal mouse model was employed to induce injury in mice on postnatal day 5. […] Coronal sections of the brains were analyzed using stereology on postnatal day 25 to determine the number of olig2APC+ oligodendrocytes in the periventricular white matter of the corpus callosum. […]

[3] = tested on: primary neural stem cells from neonatal mice; assay: In vitro oligodendrocyte differentiation from neural stem cells; type: cell-based
Protocol: To determine the impact of oxysterol exposure on cellular differentiation, primary neural stem cells from neonatal mice were cultured in chamber slides. Cells were cultured in media alone (control) or 1 μM 20α-hydroxycholesterol for 7 days were then allowed to differentiate for 18 days. The differentiated cells were immunostained for markers of oligodendrocytes (Olig2 and CNPase) and visualized on a confocal microscope (FIG. 1A). […] Protein samples from control and 20α-hydroxycholesterol treated stem cell cultures were then fractionated and probed for markers of the oligodendrocyte lineage.

[4] = tested on: olig2+ cells in the corpus callosum; assay: In vivo oligodendrocyte differentiation in uninjured postnatal mice; details: uninjured five-day old mice, 100 mg/kg/day subcutaneously, 4 daily doses, analyzed five days after final injection; vs vehicle; p<0.02
Protocol: 20α-hydroxycholesterol was administered to uninjured postnatal mice during the normal myelination period to determine if oxysterol exposure increased the numbers of oligodendrocytes in vivo. Five-day old mice were administered 4 daily doses of vehicle control (n=4) or 20α-hydroxycholesterol (n=4) subcutaneously (100 mg/kg/day) and rested. Five days after the final injection, the mice were analyzed to quantify the number of olig2+ cells in the corpus callosum (FIG. 2A, FIG. 2B).

[5] = tested on: Primary neural stem cells; assay: In vitro oligodendrocyte differentiation from neural stem cells with breast milk-associated oxysterols (western blot); type: cell-based; details: 1 μm and 0.5 μm for five days, then 18 days differentiation; FIG. 8
Protocol: FIG. 8 is a western blot analysis. Stem cells were treated with oxysterols at doses indicated for 5 days then allowed to differentiate for 18 days. Primary neural stem cells were treated with 24-hydroxycholesterol and 25-hydroxycholesterol at 1 μm and 0.5 μm for five days, then allowed to differentiate for 18 days. Protein lysates were probed for oligodendrocyte-associated proteins CNPase and myelin basic protein (MBP).

smoothened (SMO), sequence (Q99835 28-787): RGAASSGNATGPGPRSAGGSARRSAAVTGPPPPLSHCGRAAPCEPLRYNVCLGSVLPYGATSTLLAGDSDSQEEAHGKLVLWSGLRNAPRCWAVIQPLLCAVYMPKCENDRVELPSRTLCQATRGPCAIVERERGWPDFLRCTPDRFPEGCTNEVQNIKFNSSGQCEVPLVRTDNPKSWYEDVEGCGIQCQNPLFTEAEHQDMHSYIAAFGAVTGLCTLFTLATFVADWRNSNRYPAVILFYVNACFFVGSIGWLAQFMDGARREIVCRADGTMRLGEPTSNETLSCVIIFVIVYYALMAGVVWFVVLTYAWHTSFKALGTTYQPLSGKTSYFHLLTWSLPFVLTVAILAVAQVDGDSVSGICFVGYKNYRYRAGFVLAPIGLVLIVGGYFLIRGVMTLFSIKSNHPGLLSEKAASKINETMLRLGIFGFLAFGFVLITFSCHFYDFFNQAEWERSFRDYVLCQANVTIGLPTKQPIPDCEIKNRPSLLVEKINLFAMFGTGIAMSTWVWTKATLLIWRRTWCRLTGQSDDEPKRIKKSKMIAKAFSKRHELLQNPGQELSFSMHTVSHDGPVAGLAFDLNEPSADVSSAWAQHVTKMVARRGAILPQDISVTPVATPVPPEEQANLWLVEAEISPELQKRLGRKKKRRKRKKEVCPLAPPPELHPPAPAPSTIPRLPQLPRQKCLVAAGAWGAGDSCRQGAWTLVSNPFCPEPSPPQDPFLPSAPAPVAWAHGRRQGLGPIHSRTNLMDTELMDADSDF

CC(C)CCC[C@](C)(O)[C@H]1CC[C@H]2[C@@H]3CC=C4C[C@@H](O)CC[C@]4(C)[C@H]3CC[C@@]21C [20α-hydroxycholesterol]
gait disturbances (CatWalk Gait Analysis System) ([1]; 100 mg/kg/day daily for five days, evaluated at two months of age): not present
Regularity Index (interpaw coordination) ([1]; 100 mg/kg/day daily for five days, two months of age, FIG. 4D): completely reversed any observed deficits
Swing and swing speed ([1]; FIG. 5C, 5D): reversed all of these measures of gait disturbances
SHH pathway activation via direct binding to smoothened (SMO) (smoothened (SMO)): activate the SHH pathway
amount of oligodendrocytes (olig2APC+) within the periventricular white matter [2]: significantly increased
olig2+ CNPase+ cells (oligodendrocytes), cell counting ([3]; 1 μM for 7 days, then 18 days differentiation, vs media alone, p<0.02, FIG. 1C): significant increase
CNPase, Olig2 and myelin basic protein (MBP), Western blot ([3]; 1 μM treated stem cell cultures vs control, FIG. 1D): increase
olig2+ cell population in the corpus callosum [4]: significant increase

CC(C)CC[C@@H](O)[C@@H](C)[C@H]1CC[C@H]2[C@@H]3CC=C4C[C@@H](O)CC[C@]4(C)[C@H]3CC[C@]12C [22α-hydroxycholesterol]
SHH pathway activation via direct binding to smoothened (SMO) (smoothened (SMO)): activate the SHH pathway

CC(C)C(O)CC[C@@H](C)[C@H]1CC[C@H]2[C@@H]3CC=C4C[C@@H](O)CC[C@]4(C)[C@H]3CC[C@]12C (some centres unmarked) [24-hydroxycholesterol]
expression of oligodendrocyte-associated proteins CNPase and MBP (western blot) [5]: induced expression

C[C@H](CCCC(C)(C)O)[C@H]1CC[C@H]2[C@@H]3CC=C4C[C@@H](O)CC[C@]4(C)[C@H]3CC[C@]12C [25-hydroxycholesterol]
expression of oligodendrocyte-associated proteins CNPase and MBP (western blot) [5]: induced expression

Reference: patent US12029742B2, “Compositions and methods for the repair of myelin” (Duke University, priority 2014, dated 2024)
